According to US20250109127A1, “METHODS OF USE OF PHENOXYPROPYLAMINE COMPOUNDS TO TREAT DEPRESSION” (Minerva Neurosciences, Inc., priority 2013, published 2025):
Values joined by “and” are separate entries in the source; they are usually repeats but may differ in a detail not shown here. Equal entries are not always repeated. Structures can show the parent of a compound that is named as a salt.

Tested on: 5-HT release in the rat prefrontal cortex
Assay: Microdialysis: 5-HT release in prefrontal cortex after I.P. administration
Assay type: in vivo
Settings: for 5-HT release, individual animals / 5-HT release, MEAN: 0.3 mg/kg I.P.; for 5-HT release, individual animals: one column per animal R#11,12,18,23,29,30,17,24, hydrochloride; for 5-HT release, MEAN / 5-HT release (% of basal levels) measured in dialysates, MEAN: n = 8; for serotonin levels, increase (not statistically significant): SON-117 0.1 mg/kg IP; for 5-HT release (% of basal levels) measured in dialysates, MEAN: SON-117 3 mg/kg IP
Method: The aim of the study was to evaluate, using microdialysis, the effects of an intraperitoneal (I.P.) administration in rats of three different doses of SON-117 on dopamine and its metabolites, serotonin and its metabolite (5-HIAA), and norepinephrine levels in prefrontal cortex.
Thirty-two adult male Wistar rats were used for the whole study (4 groups of eight animals planned for the study, Table 1).
Surgery was performed on rats weighing about 300 g at the beginning of the experiments. Rats were anaesthetized with Ketamine (50 mg/kg) & Xylazine (15 mg/kg) by intramuscular administration. The animals were placed in a stereotaxic apparatus in the flat-skull position at a constant setting of −3.3 mm between ear bars and the incisor bar. The animals were treated with a local anesthesic (xylocaine 1%, Astra Zeneca) and an analgesic (Temgesic, from Schering Plough, 0.05 mg/kg, s.c.). A rostrocaudal midline incision was made with a lancet to expose the dorsal skull surface. The “stereotaxic zero” was defined by the Bregma in accordance with Paxinos and Watson's atlas (1986). A hole was drilled in the skull with a drill and the meninges were pierced with a sterile needle to implant a CMA12 guide cannula which later received the dialysis probe.
Coordinates used for implanting guide cannula in prefrontal cortex from Bregma were anteroposterior 3.7 mm, mediolateral 0.8 mm, and dorsoventral −2 mm (top of the probe was at −5 mm). The guide cannula was fixed to the skull with two stainless steel screws (1.88 mm outside diameter) anchored. An application of dental cement was added. A plastic collar allowed each animal to be tethered to a Swivel assembly of the CMA 120 awake animal system. Following surgery, rats were kept in individual cages and allowed to recover for a minimum of 3-5 days before the experimentation. The rats were handled and put in plastic bowl for 10 min at least every day to habituate the animals to their new environment for the dialysis. An I.P. administration with saline was also performed every day.
Dialysis probes (CMA12/3 mm, membrane, 20 kD cut-off, Carnegie Medicine, Stockholm, Sweden), were carefully washed before inserting into the guide cannula. The wash was performed with the artificial cerebrospinal fluid (aCSF) medium (NaCl 147 mM, KCl 2.7 mM, CaCl2 1.2 mM, MgCl2 0.85 mM) at room temperature. The dialysis system was then equilibrated at 20° C. at a perfusion rate of 1 μl/min with a Carnegie pump (CMA100). All catheters (FEP tubing, internal volume of 1.2 μl/10 cm, and tubing adaptors) used for microdialysis were treated in the same conditions.
The probes duly prepared were inserted into the guide cannula and the CMA120 Swivel assembly secured to the animal using a plastic collar. Flow through the dialysis probe with aCSF was maintained at a rate of 1 μl/min during the whole experimentation. The first four fractions (corresponding to 2 hours) were discarded to avoid the effects of parenchymal disturbance and to ensure that an approximate steady-state level was reached. Fractions were then collected over a period of 8.5 h during which time the animals remained quiet. The dialysates were automatically collected with an autosampler (microfraction collector CMA 140, Carnegie Medicin) and stored at −80° C. until analysis. […] Perfusion was then maintained for 7 hours with aCSF. The dialysates (30 μl) were collected into 300 μl vials, transferred into dry ice and then kept frozen (−80° C.) until analysis. Frozen samples were shipped to a partner for analysis. At the end of the microdialysis study, a PBS with colored ink was perfused through the probe in order to visualize the dialyzed area.
Catecholamine assay: Concentrations of dopamine, DOPAC, HVA, 5-HIAA, 5-HT, and norepinephrin were determined for each sample by HPLC coupled with electrochemical detection. […]

Cc1nnc(-c2cc3c(OC[C@@H](O)CN4CCC(c5ccc(Cl)c(Cl)c5)CC4)cccc3o2)o1 [SON-117, (S)-1-(4-(3,4-dichlorophenyl)piperidino)-3-(2-(5-methyl-1,3,4-oxadiazol-2-yl)benzo(b)furan-4-yloxy)-2-propanol hydrochloride]
5-HT release, individual animals (T3 h 30-T4 h): 200.54 % of respective basal and 84.61 % of respective basal and 62.15 % of respective basal and 60.73 % of respective basal and 115.12 % of respective basal and 46.42 % of respective basal and 361.81 % of respective basal
5-HT release, MEAN (T3 h-T3 h 30): 112.03 % of respective basal
5-HT release, individual animals (T3 h-T3 h 30): 118.62 % of respective basal and 100.39 % of respective basal and 94.04 % of respective basal and 122.16 % of respective basal and 126.07 % of respective basal and 27.45 % of respective basal and 195.48 % of respective basal
5-HT release, MEAN (T4 h 30-T5 h): 105.19 % of respective basal
5-HT release, individual animals (T4 h 30-T5 h): 144.93 % of respective basal and 86.55 % of respective basal and 70.67 % of respective basal and 69.54 % of respective basal and 82.71 % of respective basal and 313.44 % of respective basal and 18.96 % of respective basal and 54.73 % of respective basal
5-HT release, MEAN (T4 h-T4 h 30): 80.14 % of respective basal
5-HT release, individual animals (T4 h-T4 h 30): 87.68 % of respective basal and 67.29 % of respective basal and 102.65 % of respective basal and 67.53 % of respective basal and 83.72 % of respective basal and 130.39 % of respective basal and 23.64 % of respective basal and 78.23 % of respective basal
5-HT release, MEAN (T5 h 30-T6 h): 106.06 % of respective basal
5-HT release, individual animals (T5 h 30-T6 h): 149.11 % of respective basal and 44.15 % of respective basal and 83.73 % of respective basal and 57.89 % of respective basal and 95.31 % of respective basal and 328.43 % of respective basal and 13.82 % of respective basal and 76.03 % of respective basal
5-HT release, MEAN (T5 h-T5 h 30): 100.56 % of respective basal
5-HT release, individual animals (T5 h-T5 h 30): 81.27 % of respective basal and 37.01 % of respective basal and 187.99 % of respective basal and 64.78 % of respective basal and 81.96 % of respective basal and 177.83 % of respective basal and 7.58 % of respective basal and 166.02 % of respective basal
5-HT release, MEAN (T6 h 30-T7 h): 103.94 % of respective basal
5-HT release, individual animals (T6 h 30-T7 h): 181.36 % of respective basal and 59.67 % of respective basal and 70.80 % of respective basal and 52.79 % of respective basal and 109.41 % of respective basal and 187.49 % of respective basal
5-HT release, MEAN (T6 h-T6 h 30): 95.56 % of respective basal
5-HT release, individual animals (T6 h-T6 h 30): 73.74 % of respective basal and 57.84 % of respective basal and 81.54 % of respective basal and 59.72 % of respective basal and 94.43 % of respective basal and 108.00 % of respective basal and 20.86 % of respective basal and 268.32 % of respective basal
5-HT release, MEAN (T-30 min-T0 (before administration)): 94.43 % of respective basal
5-HT release, MEAN (T-1 h 30-T-1 h (before administration)): 100.12 % of respective basal
5-HT release, MEAN (T-1 h-T-30 min (before administration)): 104.14 % of respective basal
serotonin levels, increase (not statistically significant) (at 2.5 h): 368%
serotonin levels, increase (not statistically significant) (from 4.5 h to 7 h): 350%
5-HT release, maximum increase observed (SON-117 0.1 mg/kg, at 2.5 h): 369%
levels of 5-HT compared to the citalopram treated group (significant) (SON-117 0.1 mg/kg, at 2.5 h, 4.5 and 5.5 h): higher
5-HT dialysate levels vs mean pre-administration value (SON-117 0.3 mg/kg IP): no statistically significant differences
levels of 5-HT compared to the citalopram treated group (significant) (SON-117 0.3 mg/kg, at 1 h): slightly lower
5-HT release (% of basal levels) measured in dialysates, MEAN (T0-T30 min): 100.79 % of basal levels
5-HT release (% of basal levels) measured in dialysates, MEAN (T30-T1 h): 122.25 % of basal levels
